HELM strings list units from the 5' end as sugar, base in round brackets, then linkage (d deoxyribose, r ribose, m 2'-O-methyl, p phosphodiester). Strings are as the collection lists them; they lack the last nucleoside at the 3' end of the tested compound. [moe] = 2'-O-(2-methoxyethyl) (MOE); [sp] = phosphorothioate linkage; [m5C] = 5-methylcytosine
target: ATXN2; assay: mouse, dose not given; settings: ASO

Row | Substance | 3 h FOB score [score 0-7]
1 | RNA1{[moe](T)[sp].[moe](T)p.[moe](T)p.[moe](G)p.[moe](T)p.d(T)[sp].d(A)[sp].d([m5C])[sp].d(T)[sp].d(G)[sp].d(T)[sp].d(T)[sp].d(T)[sp].d([m5C])[sp].d(G)[sp].[moe](A)p.[moe]([m5C])p.[moe]([m5C])[sp].[moe](T)}$$$$ (last 3' nucleoside missing) | 5
2 | RNA1{[moe](T)[sp].[moe](T)p.[moe](T)p.[moe](G)p.[moe]([m5C])p.d(T)[sp].d(T)[sp].d(A)[sp].d(T)[sp].d(T)[sp].d(A)[sp].d(T)[sp].d(T)[sp].d([m5C])[sp].d(T)[sp].[moe]([m5C])p.[moe](A)p.[moe]([m5C])[sp].[moe](A)}$$$$ (last 3' nucleoside missing) | 0
3 | RNA1{[moe](T)[sp].[moe](T)p.[moe](T)p.[moe](T)p.[moe](G)p.d(A)[sp].d(A)[sp].d(T)[sp].d(T)[sp].d(A)[sp].d([m5C])[sp].d(A)[sp].d(A)[sp].d(T)[sp].d(G)[sp].[moe]([m5C])p.[moe](G)p.[moe](G)[sp].[moe](T)}$$$$ (last 3' nucleoside missing) | 2
4 | RNA1{[moe](T)[sp].[moe](T)p.[moe](T)p.[moe](T)p.[moe](G)p.d([m5C])[sp].d(T)[sp].d(T)[sp].d(A)[sp].d(T)[sp].d(T)[sp].d(A)[sp].d(T)[sp].d(T)[sp].d([m5C])[sp].[moe](T)p.[moe]([m5C])p.[moe](A)[sp].[moe]([m5C])}$$$$ (last 3' nucleoside missing) | 0
5 | RNA1{[moe](T)[sp].[moe](T)p.[moe](T)p.[moe](T)p.[moe](T)p.d(G)[sp].d([m5C])[sp].d(T)[sp].d(T)[sp].d(A)[sp].d(T)[sp].d(T)[sp].d(A)[sp].d(T)[sp].d(T)[sp].[moe]([m5C])p.[moe](T)p.[moe]([m5C])[sp].[moe](A)}$$$$ (last 3' nucleoside missing) | 0
6 | RNA1{[moe](T)[sp].[moe](T)p.[moe](T)p.[moe](T)p.[moe]([m5C])[sp].d(T)[sp].d([m5C])[sp].d(A)[sp].d(T)[sp].d(G)[sp].d(T)[sp].d(G)[sp].d([m5C])[sp].[moe](G)p.[moe](G)p.[moe]([m5C])[sp].[moe](A)}$$$$ (last 3' nucleoside missing) | 5.5
7 | RNA1{[moe](T)[sp].[moe](T)p.[moe](T)p.[moe](T)p.[moe]([m5C])p.d(T)[sp].d([m5C])[sp].d(A)[sp].d(T)[sp].d(G)[sp].d(T)[sp].d(G)[sp].d([m5C])[sp].d(G)[sp].d(G)[sp].[moe]([m5C])p.[moe](A)p.[moe](T)[sp].[moe]([m5C])}$$$$ (last 3' nucleoside missing) | 5
8 | RNA1{[moe](T)[sp].[moe](T)p.[moe](T)p.[moe]([m5C])p.[moe](T)p.d([m5C])[sp].d(A)[sp].d(T)[sp].d(G)[sp].d(T)[sp].d(G)[sp].d([m5C])[sp].d(G)[sp].d(G)[sp].d([m5C])[sp].[moe](A)p.[moe](T)p.[moe]([m5C])[sp].[moe](A)}$$$$ (last 3' nucleoside missing) | 6
9 | RNA1{[moe](T)[sp].[moe](T)p.[moe]([m5C])p.[moe](T)[sp].[moe]([m5C])[sp].d(T)[sp].d(A)[sp].d(T)[sp].d(T)[sp].d(T)[sp].d([m5C])[sp].d(T)[sp].d(T)[sp].d(T)[sp].d(G)[sp].[moe](T)p.[moe]([m5C])p.[moe]([m5C])[sp].[moe](A)}$$$$ (last 3' nucleoside missing) | 4
10 | RNA1{[moe](T)[sp].[moe](T)p.[moe]([m5C])p.[moe](T)p.[moe](G)[sp].d(T)[sp].d(A)[sp].d([m5C])[sp].d(T)[sp].d(T)[sp].d(T)[sp].d(T)[sp].d([m5C])[sp].[moe](T)p.[moe]([m5C])p.[moe](A)[sp].[moe](T)}$$$$ (last 3' nucleoside missing) | 2.5
11 | RNA1{[moe](T)[sp].[moe](T)p.[moe]([m5C])p.[moe](T)p.[moe](G)[sp].d([m5C])[sp].d(T)[sp].d(A)[sp].d(A)[sp].d([m5C])[sp].d(T)[sp].d(G)[sp].d(G)[sp].[moe](T)p.[moe](T)p.[moe](T)[sp].[moe](G)}$$$$ (last 3' nucleoside missing) | 1.75
12 | RNA1{[moe](T)[sp].[moe](T)p.[moe]([m5C])p.[moe](T)p.[moe](G)p.d(T)[sp].d(A)[sp].d([m5C])[sp].d(T)[sp].d(T)[sp].d(T)[sp].d(T)[sp].d([m5C])[sp].d(T)[sp].d([m5C])[sp].[moe](A)p.[moe](T)p.[moe](G)[sp].[moe](T)}$$$$ (last 3' nucleoside missing) | 4.5
13 | RNA1{[moe](T)[sp].[moe](T)p.[moe]([m5C])p.[moe](T)p.[moe](G)p.d([m5C])[sp].d(T)[sp].d(A)[sp].d(A)[sp].d([m5C])[sp].d(T)[sp].d(G)[sp].d(G)[sp].d(T)[sp].d(T)[sp].[moe](T)p.[moe](G)p.[moe]([m5C])[sp].[moe]([m5C])}$$$$ (last 3' nucleoside missing) | 2
14 | RNA1{[moe](T)[sp].[moe](T)p.[moe]([m5C])p.[moe](T)p.[moe]([m5C])[sp].d(T)[sp].d(A)[sp].d(T)[sp].d(T)[sp].d(T)[sp].d([m5C])[sp].d(T)[sp].d(T)[sp].[moe](T)p.[moe](G)p.[moe](T)[sp].[moe]([m5C])}$$$$ (last 3' nucleoside missing) | 1
15 | RNA1{[moe](T)[sp].[moe](T)p.[moe]([m5C])p.[moe](T)p.[moe]([m5C])[sp].d(T)[sp].d(A)[sp].d(T)[sp].d(T)[sp].d(T)[sp].d([m5C])[sp].d(T)[sp].d(T)[sp].d(T)[sp].d(G)[sp].[moe](T)p.[moe]([m5C])p.[moe]([m5C])[sp].[moe](A)}$$$$ (last 3' nucleoside missing) | 4
16 | RNA1{[moe](T)[sp].[moe](T)p.[moe]([m5C])p.[moe](T)p.[moe]([m5C])p.[moe](T)p.d(A)[sp].d(T)[sp].d(T)[sp].d(T)[sp].d([m5C])[sp].d(T)[sp].d(T)[sp].d(T)[sp].d(G)[sp].d(T)[sp].[moe]([m5C])p.[moe]([m5C])[sp].[moe](A)}$$$$ (last 3' nucleoside missing) | 4
17 | RNA1{[moe](T)[sp].[moe](T)p.[moe]([m5C])p.[moe](T)p.[moe]([m5C])p.d(T)[sp].d(A)[sp].d(T)[sp].d(T)[sp].d(T)[sp].d([m5C])[sp].d(T)[sp].d(T)[sp].d(T)[sp].d(G)[sp].[moe](T)p.[moe]([m5C])p.[moe]([m5C])[sp].[moe](A)}$$$$ (last 3' nucleoside missing) | 3
18 | RNA1{[moe](T)[sp].[moe](T)p.[moe]([m5C])p.[moe](T)p.d([m5C])[sp].d(T)[sp].d(A)[sp].d(T)[sp].d(T)[sp].d(T)[sp].d([m5C])[sp].d(T)[sp].d(T)[sp].d(T)[sp].[moe](G)p.[moe](T)p.[moe]([m5C])p.[moe]([m5C])[sp].[moe](A)}$$$$ (last 3' nucleoside missing) | 4
19 | RNA1{[moe](T)[sp].[moe]([m5C])p.[moe](A)p.[moe](G)p.[moe](A)p.d([m5C])[sp].d(T)[sp].d(T)[sp].d([m5C])[sp].d(T)[sp].d(T)[sp].d(G)[sp].d(T)[sp].d(T)[sp].d(G)[sp].[moe](T)p.[moe](T)p.[moe](G)[sp].[moe](T)}$$$$ (last 3' nucleoside missing) | 2
